From ChEMBL document CHEMBL3045449, “2-Bromo-1-ethoxy-(2,4-dichloro)styrene and 2,2-dibromo-1-ethoxy-(2,4-dichloro)styrenethe two impurities of bromfenvinphos; their identification, synthesis and full characterization” (J Pestic Sci, 2010)
Calls of active or inactive are those of the source.

How the values were obtained:
Type in all cases: functional, organism-based
Tetranychus urticae = test: Insecticidal activity against Tetranychus urticae (two-spotted spider mite)
Sitophilus granarius = test: Insecticidal activity against Sitophilus granarius (granary weevil)
Blatta orientalis = test: Insecticidal activity against Blatta orientalis
Musca domestica = test: Insecticidal activity against Musca domestica (house fly)

Measured: Activity

CCOC(=C(Br)Br)c1ccc(Cl)cc1Cl
inactive: Tetranychus urticae | Sitophilus granarius | Blatta orientalis | Musca domestica

CCOC(=CBr)c1ccc(Cl)cc1Cl (mixture of isomers)
inactive: Tetranychus urticae | Sitophilus granarius | Blatta orientalis | Musca domestica
